{"source": "patent US11384159B2", "about": "“B-1,3-1,6-glucan powder, glucan-containing composition, method for producing B-1,3-1,6-glucan powder, inclusion complex, method for producing inclusion complex, and method for recovering guest molecule” (MITSUBISHI GAS CHEMICAL COMPANY, INC., priority 2017, dated 2022)", "assay": "Inclusion of poorly water-soluble substance (curcumin): absorbance of supernatant at 405 nm", "assay_type": "physicochemical", "settings": "0.002 mol/L monomer glucose; curcumin in acetone, 1 vol. % acetone; 3 hours, 25° C.; after centrifugation", "excerpt": "In order to examine the change in characteristics of centrifugally regenerated β-1,3-1,6-glucan in association with powder formation, the envelopment and solubilizing capacity of the centrifugally regenerated β-1,3-1,6-glucan with respect to poorly water-soluble substances were compared.\nβ-1,3-1,6-glucan (lyophilized) derived from Aureobasidium pullulans was used as the centrifugally regenerated β-1,3-1,6-glucan powder, and curcumin (available from Tokyo Chemical Industry Co., Ltd., catalog number: 00435) was used as the poorly water-soluble substance.\nThe centrifugally regenerated β-1,3-1,6-glucan powder was dissolved in distilled water at a concentration of 1.0% by mass, and the glucose concentration was calculated through the phenol-sulfuric acid method, after which the solution was diluted and used. […]\nEach centrifugally regenerated β-1,3-1,6-glucan solution having a monomer glucose concentration adjusted to 0.002 mol/L was prepared at an amount of 1 mL each, and an acetone solution of curcumin adjusted to a concentration of 0.05 mol/L was added such that the final concentration of acetone was 1 vol. %. […] Centrifugation (KUBOTA3740 (available from Kubota Manufacturing Co., Ltd.), 14000 G, 5 minutes) was carried out, the insoluble matter was removed, and the absorbance of the supernatant at a wavelength of 405 nm was compared. […]", "data": [{"smiles": "COc1cc(/C=C/C(=O)CC(=O)/C=C/c2ccc(O)c(OC)c2)ccc1O", "note": "[curcumin]", "values": [{"measurement": "absorbance (wavelength of 405 nm) originating from the curcumin in the supernatant", "result": 0.045}]}]}
